Experimental data as given in the supplement of paper PMC10307832.

Legend:
Test in all cases: relative viability (nuclei count vs DMSO), 5 days (fraction); higher = more cells survive
[1] = compound: COc1cc(Nc2c(C#N)cnc3cc(OCCCN4CCN(C)CC4)c(OC)cc23)c(Cl)cc1Cl [Bosutinib] + C[C@@H](Oc1cc(-c2cnn(C3CCNCC3)c2)cnc1N)c1c(Cl)ccc(F)c1Cl [Crizotinib] (partner 1 µM)
How it was run: (§1)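 Relative viability equals treated-well nuclei counts divided by vehicle-well nuclei counts. Counts came from 4× images of lung cancer cell lines grown in 1536-well plates for 5 days after pin-tool dosing on the day after seeding. Dosing used one drug alone or a fixed anchor-drug dose plus five library-drug doses (not always all listed) in √10 steps, and values are medians of duplicate plates.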

[2] = compound: COc1cc(Nc2c(C#N)cnc3cc(OCCCN4CCN(C)CC4)c(OC)cc23)c(Cl)cc1Cl [Bosutinib] + Cc1nc(NC(=O)N2CCC[C@H]2C(N)=O)sc1-c1ccnc(C(C)(C)C(F)(F)F)c1 [Alpelisib] (partner 2 µM)
How it was run: as §1

[3] = compound: COc1cc(Nc2c(C#N)cnc3cc(OCCCN4CCN(C)CC4)c(OC)cc23)c(Cl)cc1Cl [Bosutinib] + N=C(N)NC(=N)NCCc1ccccc1 [Phenformin] (partner 250 µM)
How it was run: as §1

[4] = compound: COc1cc(Nc2c(C#N)cnc3cc(OCCCN4CCN(C)CC4)c(OC)cc23)c(Cl)cc1Cl [Bosutinib] + COc1cc2c(Oc3ccc(NC(=O)C4(C(=O)Nc5ccc(F)cc5)CC4)cc3F)ccnc2cc1OCCCN1CCOCC1 [Foretinib] (partner 0.25 µM)
How it was run: as §1

[5] = compound: COc1cc(Nc2c(C#N)cnc3cc(OCCCN4CCN(C)CC4)c(OC)cc23)c(Cl)cc1Cl [Bosutinib] + COc1cccc2cc(-c3nc([C@H]4CC[C@H](C(=O)O)CC4)n4ncnc(N)c34)[nH]c12 [OSI-027] (partner 0.5 µM)
How it was run: as §1

Cell Line | relative viability ([1]; first compound 0.01 µM) | relative viability ([1]; first compound 0.03162 µM) | relative viability ([1]; first compound 0.1 µM) | relative viability ([1]; first compound 1 µM) | relative viability ([2]; first compound 0.01 µM) | relative viability ([2]; first compound 0.03162 µM) | relative viability ([2]; first compound 0.1 µM) | relative viability ([2]; first compound 1 µM) | relative viability ([3]; first compound 0.01 µM) | relative viability ([3]; first compound 0.03162 µM) | relative viability ([3]; first compound 0.1 µM) | relative viability ([3]; first compound 1 µM) | relative viability ([4]; first compound 0.01 µM) | relative viability ([4]; first compound 0.03162 µM) | relative viability ([4]; first compound 0.1 µM) | relative viability ([4]; first compound 1 µM) | relative viability ([5]; first compound 0.01 µM) | relative viability ([5]; first compound 0.03162 µM) | relative viability ([5]; first compound 0.1 µM) | relative viability ([5]; first compound 1 µM)
NCI-H2023 | 0.538 | 0.613 | 0.511 | 0.366 | 0.581 | 0.655 | 0.538 | 0.426 | 0.415 | 0.4 | 0.376 | 0.295 | 0.874 | 0.921 | 0.81 | 0.498 | 0.477 | 0.429 | 0.377 | 0.362
NCI-H2085 | 0.799 | 0.685 | 0.826 | 0.874 | 0.978 | 0.976 | 0.903 | 0.988 | 0.825 | 0.705 | 0.652 | 0.515 | 0.949 | 0.983 | 0.806 | 0.935 | 0.741 | 0.781 | 0.726 | 0.462
NCI-H2087 | 0.905 | 0.991 | 0.817 | 0.908 | 1.18 | 1.15 | 1.19 | 1 | 0.563 | 0.43 | 0.411 | 0.457 | 1.02 | 1.02 | 1.17 | 1.1 | 0.685 | 0.701 | 0.727 | 0.727
NCI-H2126 | 0.934 | 1.02 | 0.987 | 0.957 | 0.712 | 0.781 | 0.733 | 0.685 | 0.519 | 0.567 | 0.544 | 0.568 | 1.08 | 1.12 | 1.25 | 1.14 | 0.678 | 0.784 | 0.753 | 0.688
NCI-H2170 | 1.25 | 1.14 | 1.15 | 1.06 | 0.821 | 0.866 | 0.797 | 0.711 | 0.391 | 0.418 | 0.427 | 0.328 | 0.959 | 1 | 1.01 | 0.962 | 0.7 | 0.684 | 0.732 | 0.654
NCI-H2228 | 0.472 | – | 0.402 | 0.333 | 0.772 | – | 0.75 | 0.587 | 0.308 | 0.236 | 0.284 | 0.326 | 0.762 | 0.931 | 0.887 | 0.744 | 0.489 | 0.533 | 0.577 | 0.609
NCI-H2347 | 0.835 | 0.877 | 0.914 | 0.648 | 1 | 1.07 | 1.06 | 1.12 | 0.323 | 0.453 | 0.54 | 0.376 | 0.929 | 0.878 | 0.988 | 0.885 | 0.347 | 0.436 | 0.436 | 0.385
NCI-H2405 | 0.945 | 0.855 | 0.891 | 0.576 | 0.886 | 0.759 | 0.837 | 0.365 | 0.413 | 0.385 | 0.386 | 0.281 | 1.03 | 1.07 | 1.09 | 0.832 | 0.634 | 0.619 | 0.615 | 0.629
